From ChEMBL document CHEMBL1201862, “PubChem BioAssay data set” (2004)
Active and inactive are the calls of the source.

Legend:
[1] = A Cell Based Secondary Assay to Explore Cytotoxicity in HepG2 Cells of Compounds that Modulate Mycobacterium tuberculosis in Media Containing Glycerol versus Media without Glycerol (2).; assay type: functional
[2] = microbe, parasite or virus in culture; assay type: functional; conditions: Mycobacterium tuberculosis
[3] = biological target: T1, Corticotropin-releasing factor receptor 2/Corticotropin-releasing factor-binding protein (Homo sapiens, UniProt P24387+Q13324); experiment: activators of CRF receptor 2 with binding protein – uHTS hits, confirmation (AID 602473); assay type: functional; conditions: read-out: EC50_Mean
T1 sequence (Q13324 whole entry): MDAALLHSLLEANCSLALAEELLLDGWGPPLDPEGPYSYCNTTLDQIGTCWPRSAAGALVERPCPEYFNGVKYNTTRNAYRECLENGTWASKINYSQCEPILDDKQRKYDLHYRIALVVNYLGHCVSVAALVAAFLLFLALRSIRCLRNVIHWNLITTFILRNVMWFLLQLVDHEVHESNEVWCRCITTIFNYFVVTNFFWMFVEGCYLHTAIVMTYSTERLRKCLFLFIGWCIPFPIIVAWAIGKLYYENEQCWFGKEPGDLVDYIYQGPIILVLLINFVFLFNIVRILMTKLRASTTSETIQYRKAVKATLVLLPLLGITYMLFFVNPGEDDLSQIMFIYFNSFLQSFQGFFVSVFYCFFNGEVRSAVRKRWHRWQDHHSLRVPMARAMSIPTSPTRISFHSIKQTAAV
T1 sequence (P24387 whole entry): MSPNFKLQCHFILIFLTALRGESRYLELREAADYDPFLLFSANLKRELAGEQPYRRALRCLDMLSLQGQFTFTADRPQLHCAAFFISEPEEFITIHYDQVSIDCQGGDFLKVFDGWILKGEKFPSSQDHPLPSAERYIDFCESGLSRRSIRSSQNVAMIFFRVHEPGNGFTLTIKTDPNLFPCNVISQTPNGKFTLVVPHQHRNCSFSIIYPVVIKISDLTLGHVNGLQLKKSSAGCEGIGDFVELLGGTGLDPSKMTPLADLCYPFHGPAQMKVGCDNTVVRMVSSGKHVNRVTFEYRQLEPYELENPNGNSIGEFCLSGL

[4] = HepG2 cell cytotoxicity, cytotoxicity control, set 4 (AID 504910); assay type: functional; conditions: Mycobacterium tuberculosis
[5] = Vero cell cytotoxicity, dose response, cytotoxicity control for M. tuberculosis growth inhibitor project, Vero cells, purified and synthesized compounds, set 4 (AID 504854); assay type: functional; conditions: Mycobacterium tuberculosis
[6] = HepG2 cell cytotoxicity, dose response, cytotoxicity control, set 3 (AID 504853); assay type: functional; conditions: Mycobacterium tuberculosis
[7] = THP-1 cell cytotoxicity, dose response, cytotoxicity control, set 3 (AID 504852); assay type: functional; conditions: Mycobacterium tuberculosis
[8] = A Cell Based Secondary Assay to Explore Cytotoxicity in THP-1 Cells of Compounds that Modulate Mycobacterium tuberculosis in Media Containing Glycerol versus Media without Glycerol (2).; assay type: functional
[9] = Vero cell cytotoxicity, cytotoxicity control for M. tuberculosis inhibitor project, purified and synthesized samples, set 3 (AID 504684); assay type: functional
[10] = biological target: T1, Corticotropin-releasing factor receptor 2/Corticotropin-releasing factor-binding protein; experiment: Dose Response confirmation of uHTS hits for small molecule antagonists of the CRF-binding protein and CRF-R2 receptor complex.; assay type: functional; conditions: read-out: IC50_Mean
[11] = CRF-BP/CRF-R2 complex antagonists, dose response, cell-based, uHTS hits, 384-well (AID 651639); assay type: functional, Homo sapiens; conditions: read-out: IC50_Mean
[12] = Vero cell cytotoxicity, dose response, cytotoxicity control for M. tuberculosis growth inhibitor project, Vero cells, purified and synthesized compounds, set 5 (AID 504909); assay type: functional; conditions: Mycobacterium tuberculosis
[13] = THP-1 cell cytotoxicity, cytotoxicity control, set 4 (AID 504911); assay type: functional; conditions: Mycobacterium tuberculosis

In the case of `Cc1ccc(C(=O)N/N=C(/CC(=O)c2cccs2)C(F)(F)F)cc1`, the CC50 [1] was 35 µM (active), the CC50 [2] was 28.2 µM (active) and the EC50 [3] was > 53 µM (inactive). For the same compound, the CC50 [4] was 38.8 µM (active), the CC50 [5] was 55 µM (active) and the CC50 [6] was > 50 µM (active). For the same compound, the CC50 [7] was 51.4 µM (active), the CC50 [8] was 89.8 µM (active) and the CC50 [9] was 61.7 µM (active). The IC50 [10] was 4.48 µM (active), the IC50 [11] was 16 µM (active) and the CC50 [12] was 34.4 µM (active). The CC50 [13] was 46.3 µM (active).
